# Results as given in PMC10649961, “Novel Mitochondria-Targeted Amphiphilic Aminophosphonium Salts and Lipids Nanoparticles: Synthesis, Antitumor Activity and Toxicity” (Nanomaterials, 2023).
# Where two headings read alike, the source gives them in different places.
# How the values were obtained:
# [1] = tested on: A549; assay: cells; conditions: Homo sapiens, A549, 48 h, read-out: Cytotoxic Effects (IC50)
# [2] = tested on: MRSA-1; assay: Antimicrobial activity, serial microdilutions, MRSA-1; type: cell-based, S. aureus; design: key to Minimum Inhibitory Concentration (MIC) / Minimum bactericidal and fungicidal concentrations (MBC, MFC): – means non-active; conditions: for MIC: read-out: Minimum Inhibitory Concentration (MIC)
# Protocol: (§1) The antimicrobial activity of test compounds was determined by serial microdilutions in 96-well plates using Mueller-Hinton broth for bacterial culture and Sabouraud broth for yeast culture. Cultures of Gram-positive bacteria were used in the experiment: Staphylococcus aureus ATCC 6538 P FDA 209P, Bacillus cereus ATCC 10702 NCTC 8035, Enterococcus faecalis ATCC 29212; Gram-negative bacteria: Escherichia coli ATCC 25922, Pseudomonas aeruginosa ATCC 9027; and yeast: Candida albicans ATCC 10231, purchased from the State Collection of Pathogenic Microorganisms and Cell Cultures “SCPM-Obolensk” (Obolensk, Russia). Methicillin-resistant strains of S. aureus (MRSA) were isolated from patients with chronic tonsillitis (MRSA-1) and sinusitis (MRSA-2) in the bacteriological laboratory of the Republican Clinical Hospital (Kazan, Russia). The experiments were carried out in triplicate.
# [3] = tested on: T98G; assay: cells; conditions: Homo sapiens, 48 h, read-out: Cytotoxic Effects (IC50)
# [4] = tested on: PANC-1; conditions: calculated relative to the cell line WI38 (a)
# [5] = tested on: Hep G2; assay: cells; conditions: Homo sapiens, HepG2, 48 h, read-out: Cytotoxic Effects (IC50)
# [6] = tested on: M-HeLa; assay: cells; conditions: Homo sapiens, 48 h, read-out: Cytotoxic Effects (IC50)
# [7] = tested on: MCF-7; assay: cells; conditions: Homo sapiens, MCF7, 48 h, read-out: Cytotoxic Effects (IC50)
# [8] = tested on: MRSA-2; assay: Antimicrobial activity, serial microdilutions, MRSA-2; type: cell-based, S. aureus; conditions: Staphylococcus aureus; for MIC: read-out: Minimum Inhibitory Concentration (MIC); for MBC: read-out: Minimum bactericidal and fungicidal concentrations (MBC, MFC)
# Protocol: as §1
# [9] = tested on: Pseudomonas aeruginosa ATCC 9027; assay: Antimicrobial activity, serial microdilutions, Pa; type: cell-based; design: key to Minimum Inhibitory Concentration (MIC) / Minimum bactericidal and fungicidal concentrations (MBC, MFC): – means non-active
# Protocol: as §1
# [10] = tested on: Staphylococcus aureus ATCC 6538 P FDA 209P; assay: Antimicrobial activity, serial microdilutions, Sa; type: cell-based; design: key to Minimum bactericidal and fungicidal concentrations (MBC, MFC): – means non-active; conditions: for MIC: read-out: Minimum Inhibitory Concentration (MIC)
# Protocol: as §1
# [11] = tested on: SK-OV-3
# [12] = tested on: PC3; conditions: calculated relative to the cell line WI38 (a)
# [13] = tested on: HuTu 80; assay: cells; conditions: Homo sapiens, HuTu80, 48 h, read-out: Cytotoxic Effects (IC50)
# [14] = tested on: A549
# [15] = tested on: PANC-1; assay: cells; conditions: Homo sapiens, PANC-1, 48 h, read-out: Cytotoxic Effects (IC50)
# [16] = tested on: Enterococcus faecalis ATCC 29212; assay: Antimicrobial activity, serial microdilutions, Ef; type: cell-based; design: key to Minimum Inhibitory Concentration (MIC) / Minimum bactericidal and fungicidal concentrations (MBC, MFC): – means non-active
# Protocol: as §1
# [17] = tested on: HuTu 80; conditions: calculated relative to the cell line WI38 (a)
# [18] = tested on: Candida albicans ATCC 10231; assay: Antimicrobial activity, serial microdilutions, Ca; type: cell-based; design: key to Minimum Inhibitory Concentration (MIC) / Minimum bactericidal and fungicidal concentrations (MBC, MFC): – means non-active
# Protocol: as §1
# [19] = tested on: M-HeLa; conditions: calculated relative to the cell line WI38 (a)
# [20] = tested on: Bacillus cereus ATCC 10702 NCTC 8035; assay: Antimicrobial activity, serial microdilutions, Bc; type: cell-based; design: key to Minimum bactericidal and fungicidal concentrations (MBC, MFC): – means non-active; conditions: for MIC: read-out: Minimum Inhibitory Concentration (MIC)
# Protocol: as §1
# [21] = tested on: DU-145; assay: cells; conditions: Homo sapiens, DU-145, 48 h, read-out: Cytotoxic Effects (IC50), DU-145, MTT assay, 48 h
# [22] = tested on: MCF-7; conditions: calculated relative to the cell line WI38 (a)
# [23] = tested on: PC3; assay: cells; conditions: Homo sapiens, PC-3, 48 h, read-out: Cytotoxic Effects (IC50), PC3, MTT assay, 48 h
# [24] = tested on: Hep G2
# [25] = tested on: SK-OV-3; assay: cells; conditions: Homo sapiens, SK-OV-3, 48 h, read-out: Cytotoxic Effects (IC50)
# [26] = tested on: DU-145
# [27] = tested on: T98G
# [28] = tested on: Escherichia coli ATCC 25922; assay: Antimicrobial activity, serial microdilutions, Ec; type: cell-based; design: key to Minimum Inhibitory Concentration (MIC) / Minimum bactericidal and fungicidal concentrations (MBC, MFC): – means non-active
# Protocol: as §1
# [29] = Staphylococcus aureus, read-out: Minimum bactericidal and fungicidal concentrations (MBC, MFC)
# [30] = calculated relative to the cell line WI38 (a)
# [31] = reference normal cell line not marked at the place (ns cells)
Compound,IC50 [1],MIC ([2]; Staphylococcus aureus),IC50 [3],selectivity index (SI) [4],IC50 [5],IC50 [6],IC50 [7],MIC [8],MBC [8],MIC ([10]; Staphylococcus aureus),selectivity index (SI) [12],IC50 [13],IC50 [15],selectivity index (SI) [17],selectivity index (SI) [19],"MIC ([20]; Bacillus cereus, Bc)",IC50 [21],selectivity index (SI) [22],IC50 [23],IC50 [25],also measured
"CCCCCCCCCCCCCC[P+](c1ccccc1)(c1ccccc1)N(CC)CC [6e, (Diethylamino)diphenyl(tetradecyl)phosphonium bromide]",2.1 ± 0.1 µM,0.5 ± 0.04 µM,1.1 ± 0.09 µM,9.3,1.4 ± 0.1 µM,0.4 ± 0.03 µM,1.2 ± 0.1 µM,0.5 ± 0.03 µM,0.5 ± 0.04 µM,0.5 ± 0.04 µM,1.9,0.07 ± 0.005 µM,0.3 ± 0.02 µM,40,7.0,0.9 ± 0.08 µM,0.4 ± 0.02 µM,2.3,1.5 ± 0.1 µM,1.6 ± 0.1 µM,"MBC [2, 29]: 1.9 ± 0.1 µM; MIC ([9]; Pseudomonas aeruginosa, ATCC9027, read-out: Minimum Inhibitory Concentration (MIC)): 3.9 ± 0.3 µM; MBC ([9]; Pseudomonas aeruginosa, ATCC9027, read-out: Minimum bactericidal and fungicidal concentrations (MBC, MFC)): 3.9 ± 0.4 µM; MBC [10, 29]: 0.5 ± 0.04 µM; selectivity index (SI) [11, 30]: 1.8; selectivity index (SI) [14, 30]: 1.3; MIC ([16]; Enterococcus faecalis, ATCC29212, read-out: Minimum Inhibitory Concentration (MIC)): 0.5 ± 0.03 µM; MBC ([16]; Enterococcus faecalis, ATCC29212, read-out: Minimum bactericidal and fungicidal concentrations (MBC, MFC)): 0.9 ± 0.1 µM; MIC ([18]; Candida albicans, ATCC10231, read-out: Minimum Inhibitory Concentration (MIC)): 1.9 ± 0.1 µM; MBC ([18]; Candida albicans, ATCC10231, read-out: Minimum bactericidal and fungicidal concentrations (MBC, MFC)): 15.6 ± 1.2 µM; MBC ([20]; Bacillus cereus, read-out: Minimum bactericidal and fungicidal concentrations (MBC, MFC)): 31.3 ± 2.5 µM; selectivity index (SI) [24, 30]: 2.0; selectivity index (SI) [26, 30]: 7.0; selectivity index (SI) [27, 30]: 2.5; MIC ([28]; Escherichia coli, ATCC25922, read-out: Minimum Inhibitory Concentration (MIC)): 31.3 ± 2.4 µM; MBC ([28]; Escherichia coli, ATCC25922, read-out: Minimum bactericidal and fungicidal concentrations (MBC, MFC)): 125 ± 11 µM"
"CCCCCCCC[N+](CC)(CC)CC [compound 7, Triethyloctylammonium iodide, reference compound]",> 100 µM,250 ± 19 µM,> 100 µM,1.1,> 100 µM,16.1 ± 1.3 µM,29.1 ± 2 µM,250 ± 20 µM,500 ± 47 µM,250 ± 20 µM,1.5,1.9 ± 0.2 µM,44.6 ± 3.1 µM,26,3.0,500 ± 47 µM,58 ± 4.1 µM,1.7,32.7 ± 2.3 µM,69 ± 4.8 µM,"Minimum bactericidal and fungicidal concentrations (MBC, MFC) [2]: –; Minimum Inhibitory Concentration (MIC) [9]: –; Minimum bactericidal and fungicidal concentrations (MBC, MFC) [9]: –; Minimum bactericidal and fungicidal concentrations (MBC, MFC) [10]: –; selectivity index (SI) [11, 31]: ns (ns—no selectivity); selectivity index (SI) [14, 31]: ns (ns—no selectivity); Minimum Inhibitory Concentration (MIC) [16]: –; Minimum bactericidal and fungicidal concentrations (MBC, MFC) [16]: –; Minimum Inhibitory Concentration (MIC) ([18]; Ca): –; Minimum bactericidal and fungicidal concentrations (MBC, MFC) ([18]; Ca): –; Minimum bactericidal and fungicidal concentrations (MBC, MFC) ([20]; Bc): –; selectivity index (SI) [24, 31]: ns (ns—no selectivity); selectivity index (SI) [26, 31]: ns (ns—no selectivity); selectivity index (SI) [27, 31]: ns (ns—no selectivity); Minimum Inhibitory Concentration (MIC) [28]: –; Minimum bactericidal and fungicidal concentrations (MBC, MFC) [28]: –"
